Key:
[1] = tested on: B cells from patients with SMZL; assay: Apoptosis/viability by flow cytometry, B cells from SMZL patients; assay type: cell-based, human; details: 0.5 mM and 1.0 mM, 24 h, seven SMZL patients
Text: (§1) Forty-six patients with B-CLL, seven patients with SMZL, two patients with lymphoproliferative disorder without a specific diagnosis, and four healthy donors were studied. All patients were diagnosed according to standard clinical and laboratory criteria. Written informed consent was obtained from all patients. Mononuclear cells from peripheral blood samples were isolated by centrifugation on a Ficoll/Hypaque (Seromed, Berlin, Germany) gradient and cryopreserved in liquid nitrogen in the presence of 10% dimethyl sulfoxide (DMSO). Lymphocytes were cultured immediately after thawing at a concentration of 2 to 5×10^6 cells/ml in RPMI 1640 culture medium (Biological Industries, Beit Haemek, Israel) supplemented with 10% heat-inactivated fetal calf serum (Gibco-BRL, Paisley, GB), 1% glutamine, and 1% penicillin-streptomycin at 37° C. in a humidified atmosphere containing 5% carbon dioxide. Apoptosis was measured by annexin V binding. Exposure of phosphatidylserine was quantified by surface annexin V staining as previously described (cf. B. Bellosillo et al., Blood 1998, vol. 92, pp. 1406-1414). […] Data were analyzed using Cell Quest software. […] Viability (V) was measured by analysis of phosphatidylserine exposure and PI uptake, and it is expressed as the percentage of non apoptotic cells. […]

[2] = tested on: CD3+/CD19- T cells from B-CLL patients; assay: Apoptosis/viability by flow cytometry, T cells from B-CLL samples; assay type: cell-based, human; details: 24 h
Text: Forty-six patients with B-CLL, seven patients with SMZL, two patients with lymphoproliferative disorder without a specific diagnosis, and four healthy donors were studied. All patients were diagnosed according to standard clinical and laboratory criteria. Written informed consent was obtained from all patients. Mononuclear cells from peripheral blood samples were isolated by centrifugation on a Ficoll/Hypaque (Seromed, Berlin, Germany) gradient and cryopreserved in liquid nitrogen in the presence of 10% dimethyl sulfoxide (DMSO). […] Apoptosis was measured by annexin V binding. Exposure of phosphatidylserine was quantified by surface annexin V staining as previously described (cf. B. Bellosillo et al., Blood 1998, vol. 92, pp. 1406-1414). […] Data were analyzed using Cell Quest software. To analyze whether the induction of apoptosis in B-CLL patients was selective to B cells, we counted the apoptotic T cells (CD3 positive cells) in four B-CLL blood samples treated for 24 h with several doses of acadesine. […] Viability (V) was measured as non apoptotic CD3+/CD19− T cells (empty symbols) or CD3−/CD19+B cells (full symbols), and it is expressed as the percentage of the viability of non treated cells. […] Viability is expressed as the mean value ± standard deviation.

[3] = tested on: B-CLL cells; assay: cells; assay type: cell-based, human
Text: Forty-six patients with B-CLL, seven patients with SMZL, two patients with lymphoproliferative disorder without a specific diagnosis, and four healthy donors were studied. All patients were diagnosed according to standard clinical and laboratory criteria. Written informed consent was obtained from all patients. Mononuclear cells from peripheral blood samples were isolated by centrifugation on a Ficoll/Hypaque (Seromed, Berlin, Germany) gradient and cryopreserved in liquid nitrogen in the presence of 10% dimethyl sulfoxide (DMSO).
Lymphocytes were cultured immediately after thawing at a concentration of 2 to 5×10^6 cells/ml in RPMI 1640 culture medium (Biological Industries, Beit Haemek, Israel) supplemented with 10% heat-inactivated fetal calf serum (Gibco-BRL, Paisley, GB), 1% glutamine, and 1% penicillin-streptomycin at 37° C. in a humidified atmosphere containing 5% carbon dioxide.
Apoptosis was measured by annexin V binding. Exposure of phosphatidylserine was quantified by surface annexin V staining as previously described (cf. B. Bellosillo et al., Blood 1998, vol. 92, pp. 1406-1414). To analyze apoptosis in T cells from the samples, 500,000 cells were incubated for 24 h with the indicated factors. Cells were then washed in phosphate-buffered saline (PBS) solution, and incubated in 50 μl of annexin binding buffer with APC-conjugated anti-CD3 and PE-conjugated anti-CD19 for 10 minutes in the dark. Cells were then diluted with annexin binding buffer to a volume of 250 μl and incubated with 0.5 μl of annexin V-FITC for 15 minutes in the dark. 250 μl of annexin binding buffer and 5 μl of PI were added just before flow cytometric analysis. Data were analyzed using Cell Quest software.
The effect of several doses of acadesine, ranging from 50 μM to 1 mM, on the viability of B-CLL cells, was studied. […] Cells from 5 patients were incubated for 24 h with various doses of acadesine as indicated.
Cells from 46 patients were incubated for 24 h with (+) or without (−) 0.5 mM acadesine. Viability (V) was measured by analysis of phosphatidylserine exposure and PI uptake, and it is expressed as the percentage of non apoptotic cells. All the patients were sensitive to acadesine and the viability decreased from 67±11% to 26±14% (n=46).

[4] = tested on: Jurkat (T cell line); assay: Effects of acadesine in cell lines: Jurkat; assay type: cell-based
Text: (§2) Another important advantage of the invention is the selectivity and the concentration of acadesine necessary to induce apoptosis. […] This means that the possible side effects coming from damaging other cellular types are minor when using acadesine as a therapeutical agent.

[5] = healthy individuals, given intravenously; cited from earlier work
[6] = tested on: 293; assay: Effects of acadesine in cell lines: 293; assay type: cell-based
Text: as §2

[7] = tested on: B cells from healthy donors; assay: Apoptosis/viability by flow cytometry, B cells from healthy donors; assay type: cell-based, human; details: 0.5 mM, 24 h, 4 healthy donors
Text: Forty-six patients with B-CLL, seven patients with SMZL, two patients with lymphoproliferative disorder without a specific diagnosis, and four healthy donors were studied. All patients were diagnosed according to standard clinical and laboratory criteria. Written informed consent was obtained from all patients. Mononuclear cells from peripheral blood samples were isolated by centrifugation on a Ficoll/Hypaque (Seromed, Berlin, Germany) gradient and cryopreserved in liquid nitrogen in the presence of 10% dimethyl sulfoxide (DMSO). Lymphocytes were cultured immediately after thawing at a concentration of 2 to 5×10^6 cells/ml in RPMI 1640 culture medium (Biological Industries, Beit Haemek, Israel) supplemented with 10% heat-inactivated fetal calf serum (Gibco-BRL, Paisley, GB), 1% glutamine, and 1% penicillin-streptomycin at 37° C. in a humidified atmosphere containing 5% carbon dioxide. Apoptosis was measured by annexin V binding. Exposure of phosphatidylserine was quantified by surface annexin V staining as previously described (cf. B. Bellosillo et al., Blood 1998, vol. 92, pp. 1406-1414). To analyze apoptosis in T cells from the samples, 500,000 cells were incubated for 24 h with the indicated factors. […] Data were analyzed using Cell Quest software. […] Viability is expressed as the mean value ± standard deviation.

[8] = tested on: JVM-2; assay: Effects of acadesine in cell lines: JVM-2; assay type: cell-based
Text: as §2

[9] = tested on: B cells from patients with lymphoproliferative disorder without a specific diagnosis; assay: Apoptosis/viability by flow cytometry, B cells, lymphoproliferative disorder without a specific diagnosis; assay type: cell-based, human; details: 0.5 mM and 1.0 mM, 24 h, two patients
Text: as §1

[10] = tested on: Hela (cervix cancer line); assay: Effects of acadesine in cell lines: Hela; assay type: cell-based
Text: as §2

[11] = tested on: MCF-7 (breast cancer line); assay: Effects of acadesine in cell lines: MCF-7; assay type: cell-based
Text: as §2

[12] = tested on: HUH7 (liver cancer line); assay: Effects of acadesine in cell lines: HUH7; assay type: cell-based
Text: as §2

NC(=O)c1ncn([C@@H]2O[C@H](CO)[C@@H](O)[C@H]2O)c1N [acadesine, 5-amino-1-β-D-ribofuranosyl-1H-imidazole-4-carboxamide]
Viability of B cells [1]: markedly reduced
Acadesine-induced apoptosis in T cells ([2]; doses up to 1 mM, four B-CLL blood samples): resistant to acadesine-induced apoptosis
Viability of T cells ([2]; higher concentrations 2-4 mM): only slightly affected the viability
Viability of B cells ([3]; 0.5 mM, 24 h, 18 B-CLL patients): markedly reduced
Induction of apoptosis ([3]; 24 h incubation, doses 50 μM to 1 mM, cells from 5 patients): induced apoptosis in a dose-dependent manner
viability at 500 µM ([3]; Homo sapiens, B-CLL, 24 h, read-out: Viability (percentage of non apoptotic cells)): 26 ± 14%
EC50 ([3]; Homo sapiens, B-CLL, 24 h incubation, 50 μM to 1 mM, cells from 5 patients (n=5), read-out: EC50 (viability of B-CLL cells)): 380 ± 60 µM
Sensitivity to acadesine relative to B-CLL cells [4]: less sensitive to acadesine than B-CLL cells
Concentrations in plasma [5]: 200 µM
Tolerability [5]: well tolerated
Sensitivity to acadesine relative to B-CLL cells [6]: less sensitive to acadesine than B-CLL cells
Viability of B cells [7]: markedly reduced
Sensitivity to acadesine relative to B-CLL cells [8]: less sensitive to acadesine than B-CLL cells
Viability of B cells [9]: markedly reduced
Sensitivity to acadesine relative to B-CLL cells [10]: less sensitive to acadesine than B-CLL cells
Sensitivity to acadesine relative to B-CLL cells [11]: less sensitive to acadesine than B-CLL cells
Sensitivity to acadesine relative to B-CLL cells [12]: less sensitive to acadesine than B-CLL cells
